Measurements published in patent US10973784B2, “Compositions and methods for treating Alzheimer's disease and Parkinson's disease” (Biotie Therapies, Inc., priority 2016, dated 2021).
“And” between values parts separate entries of the source, which are not always exact repeats. Equal entries are not always repeated. Where two headings read alike, the source gives them in different places.

Columns and labels:
[1] = Pharmacokinetic analysis of SYN120 tablets, single oral dose (Example 8); format: in vivo, human; conditions: for half-life / Tmax / AUC(0-t) / AUC(0-inf) / Cmax: human, plasma
Procedure: Pharmacokinetic (PK) analysis was performed on 42 subjects (36 males; 6 females) who received SYN120 oral tablets. In this study, subjects received a single oral dose of SYN120 at one of the following doses: 2 mg; 10 mg; 30 mg; 100 mg; 300 mg; and 600 mg. The SYN120 oral tablets used in this study were formulated for immediate release at tablet strengths of 2 mg, 10 mg, and 50 mg. The tablets were formulated using lactose monohydrate, corn starch, sodium starch glycolate, povidone, sodium lauryl sulfate, magnesium stearate, and the coating agent Opadry Yellow. Blood samples were collected at predose and 0.5, 1, 1.5, 2, 3, 4, 6, 8, 12, 16, 24, 32, 36, 48, and 72 hours postdose. During the treatments at 100 mg and higher, the protocol was amended to include an additional blood sample on Study Day 7 (nominal time of 151 hours). Following oral administration, SYN120 absorption was rapid and plasma levels were measurable in all subjects at the first time point (0.5 hours).
Table 14 below provides a summary of the mean PK parameters of plasma SYN120 for all doses.

[2] = target: 5-HT6 receptor (Homo sapiens, UniProt P50406); conditions: cited from earlier work
Sequence of 5-HT6 receptor (P50406 whole entry): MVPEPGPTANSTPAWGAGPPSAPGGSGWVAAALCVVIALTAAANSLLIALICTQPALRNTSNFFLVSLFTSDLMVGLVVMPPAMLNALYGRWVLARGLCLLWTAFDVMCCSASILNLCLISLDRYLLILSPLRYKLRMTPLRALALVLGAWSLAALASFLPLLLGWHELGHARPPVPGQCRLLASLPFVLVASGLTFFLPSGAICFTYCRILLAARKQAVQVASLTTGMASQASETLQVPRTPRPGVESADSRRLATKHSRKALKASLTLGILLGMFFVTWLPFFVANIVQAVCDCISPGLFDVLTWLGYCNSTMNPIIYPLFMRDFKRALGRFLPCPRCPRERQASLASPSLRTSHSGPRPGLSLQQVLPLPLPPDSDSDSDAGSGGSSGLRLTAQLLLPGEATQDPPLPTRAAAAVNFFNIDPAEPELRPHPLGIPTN

[3] = female, oral, 100 mg single dose, females, arithmetic mean
[4] = female, single oral dose 100 mg (females), Cohort E, geometric mean
[5] = single oral dose 2 mg, Cohort A, geometric mean
[6] = single oral dose 10 mg, Cohort B, geometric mean
[7] = single oral dose 30 mg, Cohort C, geometric mean
[8] = single oral dose 300 mg, Cohort F, geometric mean
[9] = single oral dose 600 mg, Cohort G, geometric mean
[10] = male, oral, 100 mg single dose, males, arithmetic mean
[11] = male, single oral dose 100 mg (males), Cohort D, geometric mean
[12] = single oral dose 2 mg, Cohort A, arithmetic mean ±SD
[13] = single oral dose 10 mg, Cohort B, arithmetic mean ±SD
[14] = single oral dose 30 mg, Cohort C, arithmetic mean ±SD
[15] = single oral dose 100 mg (females), Cohort E, arithmetic mean ±SD
[16] = single oral dose 100 mg (males), Cohort D, arithmetic mean ±SD
[17] = single oral dose 300 mg, Cohort F, arithmetic mean ±SD
[18] = single oral dose 600 mg, Cohort G, arithmetic mean ±SD

half-life ([1]; both sexes, oral, range across single-dose treatment groups, read-out: mean apparent elimination half-life): 8.45 to 12.4 h | Tmax ([1]; both sexes, oral, single doses of 100 mg and above, read-out: Tmax estimates): ~4 h | AUC(0-t) ([1]; female, oral, 100 mg, 100 mg single dose, females, arithmetic mean, read-out: AUC0-24): 4670 ± 2990 ng·h/mL | AUC(0-t) ([1]; female, oral, 100 mg, 100 mg single dose, females, arithmetic mean, read-out: AUC0-t): 5960 ± 3650 ng·h/mL | AUC(0-inf) [1, 3]: 5980 ± 3660 ng·h/mL | Cmax [1, 3]: 532 ± 218 ng/mL | AUC(0-t) ([1]; female, po, 100 mg, single oral dose 100 mg (females), Cohort E, geometric mean, read-out: AUC0-24): 4000 ng·h/mL | AUC(0-t) ([1]; female, po, 100 mg, single oral dose 100 mg (females), Cohort E, geometric mean, read-out: AUC0-t): 5100 ng·h/mL | half-life ([1]; female, single oral dose 100 mg (females), Cohort E, arithmetic mean ±SD, read-out: t1/2 (converted)): 12.4 h | AUC(0-inf) [1, 4]: 5120 ng·h/mL | Cmax [1, 4]: 498 ng/mL | Tmax ([1]; female, single oral dose 100 mg (females), Cohort E, median, read-out: Tmax): 2.51 h | half-life ([1]; oral, general statement, read-out: elimination half-life (t1/2)): 8 to 12 h | Tmax ([1]; oral, single dose 2 to 30 mg, on average, read-out: Tmax): ~2 h | AUC(0-t) ([1]; po, 2 mg, single oral dose 2 mg, Cohort A, geometric mean, read-out: AUC0-24): 118 ng·h/mL | AUC(0-t) ([1]; po, 2 mg, single oral dose 2 mg, Cohort A, geometric mean, read-out: AUC0-t): 139 ng·h/mL | AUC(0-t) ([1]; po, 10 mg, single oral dose 10 mg, Cohort B, geometric mean, read-out: AUC0-24): 351 ng·h/mL | AUC(0-t) ([1]; po, 10 mg, single oral dose 10 mg, Cohort B, geometric mean, read-out: AUC0-t): 384 ng·h/mL | AUC(0-t) ([1]; po, 30 mg, single oral dose 30 mg, Cohort C, geometric mean, read-out: AUC0-24): 1540 ng·h/mL | AUC(0-t) ([1]; po, 30 mg, single oral dose 30 mg, Cohort C, geometric mean, read-out: AUC0-t): 1750 ng·h/mL | AUC(0-t) ([1]; po, 300 mg, single oral dose 300 mg, Cohort F, geometric mean, read-out: AUC0-24): 21300 ng·h/mL | AUC(0-t) ([1]; po, 300 mg, single oral dose 300 mg, Cohort F, geometric mean, read-out: AUC0-t): 27400 ng·h/mL | AUC(0-t) ([1]; po, 600 mg, single oral dose 600 mg, Cohort G, geometric mean, read-out: AUC0-24): 27600 ng·h/mL | AUC(0-t) ([1]; po, 600 mg, single oral dose 600 mg, Cohort G, geometric mean, read-out: AUC0-t): 42500 ng·h/mL | half-life ([1]; single oral dose 2 mg, Cohort A, arithmetic mean ±SD, read-out: t1/2 (converted)): 11.4 ± 5.11 h | AUC(0-inf) [1, 5]: 146 ng·h/mL | Cmax [1, 5]: 11.8 ng/mL | Tmax ([1]; single oral dose 2 mg, Cohort A, median, read-out: Tmax): 2.02 h | half-life ([1]; single oral dose 10 mg, Cohort B, arithmetic mean ±SD, read-out: t1/2 (converted)): 8.45 ± 2.31 h | AUC(0-inf) [1, 6]: 389 ng·h/mL | Cmax [1, 6]: 48.7 ng/mL | Tmax ([1]; single oral dose 10 mg, Cohort B, median, read-out: Tmax): 1.76 h | half-life ([1]; single oral dose 30 mg, Cohort C, arithmetic mean ±SD, read-out: t1/2 (converted)): 8.92 ± 1.39 h | AUC(0-inf) [1, 7]: 1770 ng·h/mL | Cmax [1, 7]: 179 ng/mL | Tmax ([1]; single oral dose 30 mg, Cohort C, median, read-out: Tmax): 2.26 h | half-life ([1]; single oral dose 300 mg, Cohort F, arithmetic mean ±SD, read-out: t1/2 (converted)): 9.58 ± 3.46 h | AUC(0-inf) [1, 8]: 27400 ng·h/mL | Cmax [1, 8]: 1730 ng/mL | Tmax ([1]; single oral dose 300 mg, Cohort F, median, read-out: Tmax): 3.53 h | half-life ([1]; single oral dose 600 mg, Cohort G, arithmetic mean ±SD, read-out: t1/2 (converted)): 12 ± 4.81 h | AUC(0-inf) [1, 9]: 42900 ng·h/mL | Cmax [1, 9]: 2080 ng/mL | Tmax ([1]; single oral dose 600 mg, Cohort G, median, read-out: Tmax): 4.51 h | AUC(0-t) ([1]; male, oral, 100 mg, 100 mg single dose, males, arithmetic mean, read-out: AUC0-24): 6470 ± 3330 ng·h/mL | AUC(0-t) ([1]; male, oral, 100 mg, 100 mg single dose, males, arithmetic mean, read-out: AUC0-t): 7980 ± 4800 ng·h/mL | AUC(0-inf) [1, 10]: 8060 ± 4880 ng·h/mL | Cmax [1, 10]: 623 ± 180 ng/mL | AUC(0-t) ([1]; male, po, 100 mg, single oral dose 100 mg (males), Cohort D, geometric mean, read-out: AUC0-24): 5870 ng·h/mL | AUC(0-t) ([1]; male, po, 100 mg, single oral dose 100 mg (males), Cohort D, geometric mean, read-out: AUC0-t): 7010 ng·h/mL | half-life ([1]; male, single oral dose 100 mg (males), Cohort D, arithmetic mean ±SD, read-out: t1/2 (converted)): 11 h | AUC(0-inf) [1, 11]: 7060 ng·h/mL | Cmax [1, 11]: 604 ng/mL | Tmax ([1]; male, single oral dose 100 mg (males), Cohort D, median, read-out: Tmax): 4 h | CL/F [1, 12]: 18.8 ± 15.2 L/h | Vs/F [1, 12]: 264 ± 191 L | CL/F [1, 13]: 29.0 ± 15.0 L/h | Vs/F [1, 13]: 379 ± 283 L | CL/F [1, 14]: 19.2 ± 9.58 L/h | Vs/F [1, 14]: 253 ± 149 L | CL/F [1, 15]: 22.5 L/h and 22.5 ± 11.9 L/h | Vs/F [1, 15]: 448 L and 448 ± 500 L | CL/F [1, 16]: 15.8 L/h and 15.8 ± 7.56 L/h | Vs/F [1, 16]: 227 L and 227 ± 94.2 L | CL/F [1, 17]: 11.7 ± 4.81 L/h | Vs/F [1, 17]: 154 ± 57.3 L | CL/F [1, 18]: 15.7 ± 7.96 L/h | Vs/F [1, 18]: 246 ± 97.6 L
SMILES: NC(=O)NC[C@@H]1CCCc2cc(S(=O)(=O)c3cccc(F)c3)ccc21 [SYN120]
pKi [2]: 9.6
